Like-named read-outs stand apart in the source and are kept apart here.
What was measured:
[1] = test system: HDAC; settings: literature statements; cited from earlier work
[2] = test system: sirtuin protein; assay: FP assay (IC50 FP ASSAY / ED50 FP); assay type: biochemical; settings: Table 4
[3] = target: T1, sirtuin protein (Homo sapiens, UniProt Q96EB6); assay: MS assay (IC50 MS ASSAY / ED50 MS / FOLD ACTIVATION MS); assay type: biochemical; set-up: scale not given here
T1 sequence (Q96EB6 2-747 limits assumed): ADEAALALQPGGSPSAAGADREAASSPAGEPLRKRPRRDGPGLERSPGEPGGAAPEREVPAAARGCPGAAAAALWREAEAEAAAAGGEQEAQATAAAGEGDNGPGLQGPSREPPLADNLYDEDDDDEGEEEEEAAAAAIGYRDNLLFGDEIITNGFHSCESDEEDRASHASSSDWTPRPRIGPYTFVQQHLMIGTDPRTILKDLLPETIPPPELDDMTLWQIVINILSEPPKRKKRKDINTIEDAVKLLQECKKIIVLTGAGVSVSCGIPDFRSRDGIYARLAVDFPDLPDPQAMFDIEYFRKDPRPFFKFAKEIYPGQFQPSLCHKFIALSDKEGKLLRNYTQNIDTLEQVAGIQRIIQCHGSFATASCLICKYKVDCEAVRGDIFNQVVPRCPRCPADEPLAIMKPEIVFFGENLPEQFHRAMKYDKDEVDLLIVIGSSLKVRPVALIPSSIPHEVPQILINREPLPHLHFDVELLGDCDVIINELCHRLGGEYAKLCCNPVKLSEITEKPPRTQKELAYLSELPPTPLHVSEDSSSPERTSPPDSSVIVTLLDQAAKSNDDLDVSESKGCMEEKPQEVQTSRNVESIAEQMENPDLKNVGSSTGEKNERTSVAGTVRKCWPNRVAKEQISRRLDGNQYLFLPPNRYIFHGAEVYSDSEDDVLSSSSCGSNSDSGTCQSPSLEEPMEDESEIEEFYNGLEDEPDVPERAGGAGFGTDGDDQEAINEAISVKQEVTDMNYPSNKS

[4] = target: cytochrome oxidase (Complex IV) (Homo sapiens, UniProt P00395); settings: cited from earlier work
[5] = topical; cited from earlier work
[6] = MS assay, class symbols, key not given
[7] = Table 4, class symbols A′, A, B, C, NA, legend not given

Compound | ED50 MS ASSAY [3] | ED50 MS ASSAY [3, 6] | ED50 MS ASSAY ([3]; TABLE 4) | ED50 MS ASSAY ([3]; Table 4) | ED50 MS ASSAY [3, 7] | other results
O=C(/C=C/c1cccc(C(=O)NO)c1)NO [CBHA, m-carboxy-cinnamic acid bishydroxamic acid] | – | – | – | – | – | inhibition of HDAC [1]: inhibit HDAC at micromolar concentration or lower
O=C(Nc1ccccc1-c1cn2c(CN3CCNCC3)csc2n1)c1cccc(-c2ccccc2)c1 [Compound 710] | A′ | A′ | A′ | A′ | A′ | –
COc1cc(OC)cc(C(=O)Nc2ccccc2-c2nc3cc(CN(C)C)cnc3s2)c1 [Compound 722] | A′ | A′ | A′ | A′ | A′ | –
O=C(Nc1ccccc1-c1nc2cc(CN3CCOCC3)cnc2s1)c1ccc2ccccc2n1 [Compound 724] | A′ | A′ | A′ | A′ | A′ | –
Cc1ccc(C(=O)Nc2ccccc2-c2nc3ccc(CN4CCNCC4)nc3s2)cc1C [Compound 727] | A′ | A′ | A′ | A′ | A′ | –
O=C(Nc1ccccc1-c1nc2ccc(CN3CCNCC3)nc2s1)c1ccc2ccccc2n1 [Compound 729] | A′ | A′ | A′ | A′ | A′ | –
O=C(Nc1ccccc1-c1nc2cc(CN3CCNCC3)cnc2s1)c1cc(-c2ccccc2)no1 [Compound 732] | A′ | A′ | A′ | A′ | A′ | –
O=C(Nc1ccccc1-c1cn2c(CN3CCNCC3)csc2n1)c1cccc(-c2cc[nH]n2)c1 [Compound 733] | A′ | A′ | A′ | A′ | A′ | –
COc1ccc(-c2cc(C(=O)Nc3ccccc3-c3cn4c(CN5CCNCC5)csc4n3)[nH]n2)cc1 [Compound 735] | A′ | A′ | A′ | A′ | A′ | –
COc1ccc(-c2ccc(C(=O)Nc3ccccc3-c3cn4c(CN5CCNCC5)csc4n3)o2)cc1 [Compound 736] | A′ | A′ | A′ | A′ | A′ | –
O=C(Nc1ccccc1-c1cn2c(CN3CCNCC3)csc2n1)c1cccc(SC(F)F)c1 [Compound 737] | A′ | A′ | A′ | A′ | A′ | –
COc1cc(C(=O)Nc2ccccc2-c2cn3c(C)csc3n2)cc(OC)c1OC [Compound 739] | A′ | A′ | A′ | A′ | A′ | –
Cc1csc2nc(-c3ccccc3NC(=O)c3cccc(N(C)C)c3)cn12 [Compound 740] | A′ | A′ | A′ | A′ | A′ | –
C/C=C1\NC(=O)[C@H]2CSSCC/C=C/[C@H](CC(=O)N[C@H](C(C)C)C(=O)N2)OC(=O)[C@H](C(C)C)NC1=O [Depsipeptide, depsipeptide] | – | – | – | – | – | inhibition of HDAC [1]: inhibit HDAC activity at micromolar concentrations
[N]=O [Nitric oxide] | – | – | – | – | – | concentration that inhibits cytochrome oxidase (Complex IV) [4]: about 1 micromolar
CC(C)(C)NC[C@H](O)COc1nsnc1N1CCOCC1 [timolol] | – | – | – | – | – | time for IOP to fall [5]: 30 min; time of peak effects on IOP [5]: 1 to 2 h
depudecin | – | – | – | – | – | inhibition of HDAC [1]: inhibit HDAC at micromolar concentrations
trichostatin A [TSA] | – | – | – | – | – | inhibition of HDAC [1]: potent inhibitor of mammalian HDAC

Now from value to compound, other results behind:

ED50 MS ASSAY [3] | ED50 MS ASSAY [3, 6] | ED50 MS ASSAY ([3]; TABLE 4) | ED50 MS ASSAY ([3]; Table 4) | ED50 MS ASSAY [3, 7] | Compound | other results
A′ | – | – | – | – | O=C1CN(Cc2csc3nc(-c4ccccc4NC(=O)c4cnc5ccccc5n4)cn23)CCN1 [Compound 677] | ED50 FP ASSAY [2]: A′; ED50 MS ASSAY ([3]; Table 4, class symbols): A′; ED50 MS ASSAY ([3]; Table 4, class symbols A′, A, B, D, NA, legend not given): A′; ED50 MS ASSAY ([3]; class symbols (A′, A, B, D, NA), no legend given): A′
A′ | A′ | A′ | A′ | A′ | Cc1csc2nc(-c3ccccc3NC(=O)c3cnc4ccccc4n3)cn12 [Compound 707] | –
A′ | A′ | A′ | A′ | A′ | O=C(Nc1ccccc1-c1cn2c(CN3CCNCC3)csc2n1)c1ccc(-c2ccccc2)cc1 [Compound 708] | –
A′ | A′ | A′ | A′ | A′ | O=C(Nc1ccccc1-c1cn2c(CN3CCSC3)csc2n1)c1cnc2ccccc2n1 [Compound 715] | –
A′ | A′ | A′ | A′ | A′ | NC1CCN(Cc2csc3nc(-c4ccccc4NC(=O)c4cnc5ccccc5n4)cn23)CC1 [Compound 716] | –
A′ | A′ | A′ | A′ | A′ | CN1CCN(Cc2csc3nc(-c4ccccc4NC(=O)c4cnc5ccccc5n4)cn23)C(=O)C1 [Compound 741] | –
A′ | A′ | A′ | A′ | A′ | O=C(Nc1ccccc1-c1cn2c(CN3CCSCC3)csc2n1)c1cnc2ccccc2n1 [Compound 742] | –
A′ | A′ | A′ | A′ | A′ | O=C(Nc1ccccc1-c1cn2c(Cn3ccnc3)csc2n1)c1cnc2ccccc2n1 [Compound 745] | –
